In data set [1] the target is NS5B polymerase (Hepatitis C virus genotype 1b, UniProt P26663). The data set can be described thus: biochemical. The note with it: NS5B polymerase inhibition; 20 nM enzyme, 75 min at 28° C.; read-out: IC50.
Data set [2] has as its system HCV replicon. The data set can be described thus: HCV replicon assay. The class given is cell-based. Particulars: Hepatitis C virus; Example numbers 64 and 65 in Table 1; HCV replicon cells, 72 hours exposure; read-out: EC50 (HCV replicon inhibition). As to the method:
HCV Replicon Assay (Replicon EC50 (μM))
The cell culture component of the assay is performed essentially as described by Bartenschlager et al., Hepatology 2002, 35, 694-703, wherein exponentially growing HCV Huh-7/C24 replicon cells are seeded at 4.5×10^3 cells/well in 96 well plates and 24 hours later are treated with six point half-log concentration of compound. After 72 hours exposure the media is discarded from the compound assay plate and the cell monolayers are lysed by addition of 150 µL lysis mixture (Genospectra) with incubation at 53° C. for 45 minutes. Following incubation, each lysate is thoroughly mixed and 5 µl (NS3 probe) or 10 µL (GAPDH probe) of each lysate is then transferred to the capture plate and analyzed by bDNA assay.
Branched DNA (bDNA) Assay […]
After subsequent addition of the chemilumigenic substrate (dioxetan), each plate is read by luminometer (Wallac 1420 Multilabel HTS Counter Victor 2). The luminescence signal is proportional to the amount of mRNA present in each lysate. In addition to the samples, cell lysate only (no probe) background controls are also included on each bDNA assay plate and the average signal from these control wells is subtracted from the sample reading prior to analysis. Percent of no drug control is determined for both the NS3 and GAPDH signals for each compound also. […]

NS5B polymerase, sequence (P26663 2420-3010): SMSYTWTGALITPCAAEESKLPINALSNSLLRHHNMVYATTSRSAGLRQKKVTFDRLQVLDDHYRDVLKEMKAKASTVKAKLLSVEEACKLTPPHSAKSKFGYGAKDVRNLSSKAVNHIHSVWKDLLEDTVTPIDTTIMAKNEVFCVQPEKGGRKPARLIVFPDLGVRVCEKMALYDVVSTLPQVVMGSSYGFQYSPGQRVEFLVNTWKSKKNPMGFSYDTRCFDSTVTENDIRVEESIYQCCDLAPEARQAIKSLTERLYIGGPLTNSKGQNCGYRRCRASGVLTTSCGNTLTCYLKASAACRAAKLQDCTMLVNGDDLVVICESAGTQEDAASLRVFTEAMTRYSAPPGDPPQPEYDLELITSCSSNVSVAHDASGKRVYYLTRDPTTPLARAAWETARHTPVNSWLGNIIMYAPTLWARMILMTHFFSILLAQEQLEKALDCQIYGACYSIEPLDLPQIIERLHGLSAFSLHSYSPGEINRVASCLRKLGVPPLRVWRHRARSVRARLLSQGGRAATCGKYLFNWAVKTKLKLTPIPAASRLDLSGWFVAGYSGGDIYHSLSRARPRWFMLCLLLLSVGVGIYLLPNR

The compound `CS(=O)(=O)Nc1ccc2c(c1)S(=O)(=O)N=C(C1=C(O)[C@@H]3[C@H]4CC[C@H](CC4)[C@@H]3N(Cc3ccc(F)cc3)C1=O)N2` (relative stereo) [Example 50, cis-N-{3-[3-(4-Fluoro-benzyl)-6-hydroxy-4-oxo-3-aza-tricyclo[6.2.2.0^2,7]dodec-5-en-5-yl]-1,1-dioxo-1,4-dihydro-1λ^6-benzo[1,2,4]thiadiazin-7-yl}-methanesulfonamide] yielded a melting point of 203.8 to 205.7 °C. For the same compound, the IC50 in data set [1] is under 0.02 µM.
For `CS(=O)(=O)Nc1ccc2c(c1)S(=O)(=O)N=C(C1=C(O)[C@@H]3C4CCC(CC4)[C@@H]3N(Cc3ccc(F)cc3)C1=O)N2` [Example 49, N-{3-[(2S,7R)-3-(4-Fluoro-benzyl)-6-hydroxy-4-oxo-3-aza-tricyclo[6.2.2.0^2,7]dodec-5-en-5-yl]-1,1-dioxo-1,4-dihydro-1λ^6-benzo[1,2,4]thiadiazin-7-yl}-methanesulfonamide], in that order: 203.8 to 205.7 °C and under 0.02 µM.
Consider `CS(=O)(=O)Nc1cnc2c(c1)S(=O)(=O)N=C(C1=C(O)[C@@H]3[C@H]4CC[C@H](C4)[C@@H]3N(Cc3ccc(F)cc3)C1=O)N2` [Example 62, N-{3-[(1R,2S,7R,8S)-3-(4-Fluoro-benzyl)-6-hydroxy-4-oxo-3-aza-tricyclo[6.2.1.0^2,7]undec-5-en-5-yl]-1,1-dioxo-1,4-dihydro-1λ^6-pyrido[2,3-e][1,2,4]thiadiazin-7-yl}-methanesulfonamide], for which the 50% inhibitory concentration (IC50) in data set [1] lay in the range of 0.02 to 0.1 µM.
As to `O=C1C(C2=NS(=O)(=O)c3cccnc3N2)=C(O)[C@@H]2[C@H]3CC[C@H](C3)[C@@H]2N1Cc1ccc(F)cc1` [Example 63, (1R,2S,7R,8S)-5-(1,1-Dioxo-1,4-dihydro-1λ^6-pyrido[2,3-e][1,2,4]thiadiazin-3-yl)-3-(4-fluoro-benzyl)-6-hydroxy-3-aza-tricyclo[6.2.1.0^2,7]undec-5-en-4-one], in data set [1], the IC50 lay in the range of 0.1 to 1 µM.
With `O=C1C(C2=NS(=O)(=O)c3cnccc3N2)=C(O)[C@@H]2[C@H]3CC[C@H](C3)[C@@H]2N1Cc1ccc(F)cc1` [Example 64, (1R,2S,7R,8S)-5-(1,1-Dioxo-1,4-dihydro-1λ^6-pyrido[4,3-e][1,2,4]thiadiazin-3-yl)-3-(4-fluoro-benzyl)-6-hydroxy-3-aza-tricyclo[6.2.1.0^2,7]undec-5-en-4-one], the EC50 in data set [2] is 0.1 to 1 µM.
On the same count and under the same terms, the result for `O=C1C(C2=NS(=O)(=O)c3ncccc3N2)=C(O)[C@@H]2[C@H]3CC[C@H](C3)[C@@H]2N1Cc1ccc(F)cc1` [Example 65, (1R,2S,7R,8S)-5-(1,1-Dioxo-1,4-dihydro-1λ^6-pyrido[3,2-e][1,2,4]thiadiazin-3-yl)-3-(4-fluoro-benzyl)-6-hydroxy-3-aza-tricyclo[6.2.1.0^2,7]undec-5-en-4-one] reads 0.1 to 1 µM.
For the compound `CS(=O)(=O)Nc1ccc2c(c1)S(=O)(=O)N=C(C1=C(O)[C@@H]3[C@H]4CC[C@H](C4)[C@@H]3N(CCC3CC3)C1=O)N2` [Example 66, N-{3-[(1R,2S,7R,8S)-3-(2-Cyclopropyl-ethyl)-6-hydroxy-4-oxo-3-aza-tricyclo[6.2.1.0^2,7]undec-5-en-5-yl]-1,1-dioxo-1,4-dihydro-1λ^6-benzo[1,2,4]thiadiazin-7-yl}-methanesulfonamide], in data set [1], the IC50 is 0.02 to 0.1 µM.

Source of the values: patent US8765741B2, “5,6-dihydro-1H-pyridin-2-one compounds” (Anadys Pharmaceuticals, Inc., priority 2007, dated 2014).
